Reference: patent publication US12384776B2, “Compounds and uses thereof” (Foghorn Therapeutics Inc., priority 2019, dated 2025)

Molecular target: Nanoluciferase-BRD9 fusion protein (3×FLAG-NLuc-BRD9) in SYO-1 cells (Homo sapiens (Human), UniProt Q9H8M2)
Experiment: SYO1 BRD9 NanoLuc degradation assay
Assay type: cell-based
Details: SYO-1 cells expressing 3×FLAG-NLuc-BRD9, 6 hours incubation, top dose 1 μM
Experimental: Procedure: A stable SYO-1 cell line expressing 3×FLAG-NLuc-BRD9 was generated. On day 0 cells were seeded in 30 μL media into each well of 384-well cell culture plates. The seeding density was 8000 cells/well. On day 1, cells were treated with 30 nL DMSO or 30 nL of 3-fold serially DMSO-diluted compounds (10 points in duplicates with 1 μM as final top dose). Subsequently plates were incubated for 6 hours in a standard tissue culture incubator and equilibrated at room temperature for 15 minutes. Nanoluciferase activity was measured by adding 15 μL of freshly prepared Nano-Glo Luciferase Assay Reagent (Promega N1130), shaking the plates for 10 minutes and reading the bioluminescence using an EnVision reader.
Results: The Inhibition % was calculated using the following formula: % Inhibition=100×(LumHC−LumSample)/(LumHC−LumLC). DMSO treated cells are employed as High Control (HC) and 1 μM of a known BRD9 degrader standard treated cells are employed as Low Control (LC).

Sequence of Nanoluciferase-BRD9 fusion protein (3×FLAG-NLuc-BRD9) in SYO-1 cells (Q9H8M2 whole entry, the tested form may be a part): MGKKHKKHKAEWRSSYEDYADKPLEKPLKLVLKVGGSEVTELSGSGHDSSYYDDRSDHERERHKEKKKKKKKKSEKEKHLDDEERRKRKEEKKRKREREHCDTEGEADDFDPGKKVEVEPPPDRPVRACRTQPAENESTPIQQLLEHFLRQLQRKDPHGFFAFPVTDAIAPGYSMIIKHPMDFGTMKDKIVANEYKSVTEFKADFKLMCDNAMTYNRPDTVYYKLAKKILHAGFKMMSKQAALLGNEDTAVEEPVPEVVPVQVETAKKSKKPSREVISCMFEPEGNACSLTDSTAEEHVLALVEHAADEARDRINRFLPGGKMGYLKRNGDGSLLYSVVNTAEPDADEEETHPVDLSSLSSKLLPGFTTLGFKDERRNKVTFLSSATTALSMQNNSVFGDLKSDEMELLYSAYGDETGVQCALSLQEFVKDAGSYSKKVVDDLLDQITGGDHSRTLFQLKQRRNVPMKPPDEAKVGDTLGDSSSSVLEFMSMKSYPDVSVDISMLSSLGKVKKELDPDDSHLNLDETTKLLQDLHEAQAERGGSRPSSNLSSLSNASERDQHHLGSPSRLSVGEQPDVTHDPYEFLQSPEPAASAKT

IC50 [nM] | SMILES
100 to 1000 | CNC(=O)N1CCc2c(-c3cc(OC)c(CN4CCC(CCCN5CCN(C6CCC(=O)NC6=O)C(=O)C5)CC4)c(OC)c3)cn(C)c(=O)c2C1 (centres unmarked) [Compound D67]
< 10 | CNC(=O)N1CCc2c(-c3cc(OC)c(CN4CCC(CCN5CCC(c6ccc7c(c6)CN(C6CCC(=O)NC6=O)C7=O)CC5)CC4)c(OC)c3)cn(C)c(=O)c2C1 (centres unmarked) [Compound D68]
< 10 | CNC(=O)N1CCc2c(-c3cc(OC)c(CN4CCC(CCN5CCN(c6ccc7c(c6)C(=O)N(C6CCC(=O)NC6=O)C7)CC5)CC4)c(OC)c3)cn(C)c(=O)c2C1 (centres unmarked) [Compound D69]
≥ 1000 | CNC(=O)N1CCc2c(-c3cc(OC)c(CN4CCN(CCC5CCN(c6ccc7c(c6)C(=O)N(c6ccc(F)cc6F)C7=O)CC5)CC4)c(OC)c3)cn(C)c(=O)c2C1 [Compound D70]
< 10 | CNC(=O)N1CCc2c(-c3cc(OC)c(CN4CCN(CCN5CCC(c6ccc7c(c6)C(=O)N(C6CCC(=O)NC6=O)C7)CC5)CC4)c(OC)c3)cn(C)c(=O)c2C1 (centres unmarked) [Compound D71]
< 10 | CNC(=O)N1CCc2c(-c3cc(OC)c(CN4CCN(CCN5CCC(c6ccc7c(c6)CN(C6CCC(=O)NC6=O)C7=O)CC5)CC4)c(OC)c3)cn(C)c(=O)c2C1 (centres unmarked) [Compound D72]
< 10 | CNC(=O)N1CCc2c(-c3cc(OC)c(CN4CCC(CCN5CCC(c6ccc7c(c6)C(=O)N(C6CCC(=O)NC6=O)C7)CC5)CC4)c(OC)c3)cn(C)c(=O)c2C1 (centres unmarked) [Compound D73]
≥ 1000 | CNC(=O)N1CCc2c(-c3cc(OC)c(CN4CCC(CCN5CCN(C67CC8CC(CC(C8)C6)C7)CC5)CC4)c(OC)c3)cn(C)c(=O)c2C1 [Compound D74]
10 to 100 | CNC(=O)N1CCc2c(-c3cc(OC)c(CN4CCC(CCN5CCN(c6cc7c(c(F)c6F)CN(C6CCC(=O)NC6=O)C7=O)CC5)CC4)c(OC)c3)cn(C)c(=O)c2C1 (centres unmarked) [Compound D75]
< 10 | CNC(=O)N1CCc2c(-c3cc(OC)c(CN4CCC(CCN5CCN(c6ccc(-c7cnn(C8CCC(=O)NC8=O)c7)cc6)CC5)CC4)c(OC)c3)cn(C)c(=O)c2C1 (centres unmarked) [Compound D76]
10 to 100 | CNC(=O)N1CCc2c(-c3cc(OC)c(CN4CCC(CCN5CCN(c6ccn7c(=O)n(C8CCC(=O)NC8=O)nc7c6)CC5)CC4)c(OC)c3)cn(C)c(=O)c2C1 (centres unmarked) [Compound D77]
< 10 | CNC(=O)N1CCc2c(-c3cc(OC)c(CN4CCC(CCN5CCN(c6c(F)cc7c(c6F)C(=O)N(C6CCC(=O)NC6=O)C7=O)CC5)CC4)c(OC)c3)cn(C)c(=O)c2C1 (centres unmarked) [Compound D78]
≥ 1000 | CNC(=O)N1CCc2c(-c3cc(CN4CCC(CCN5CCN(c6ccc7c(c6)C(=O)N(C6CCC(=O)NC6=O)C7=O)CC5)CC4)cc(OC)c3)cn(C)c(=O)c2C1 (centres unmarked) [Compound D79]
< 10 | [2H]C1([2H])CC([2H])(N2C(=O)c3ccc(N4CCN(CCC5CCN(Cc6c(OC)cc(-c7cn(C)c(=O)c8c7CCN(C(=O)NC)C8)cc6OC)CC5)CC4)cc3C2=O)C(=O)NC1=O (centres unmarked) [Compound D80]
< 10 | COc1cc(-c2cn(C)c(=O)c3c2CCN(C(=O)NC2CC2)C3)cc(OC)c1CN1CCC(CCN2CCN(c3ccc4c(c3)C(=O)N(C3CCC(=O)NC3=O)C4=O)CC2)CC1 (centres unmarked) [Compound D81]
< 10 | CNC(=O)N1CCc2c(-c3cc(OC)c(CN4CCC(CCN5CCN(c6ccc7c(c6)C(=O)N(C6CCC(=O)N(COC(=O)OC(C)C)C6=O)C7=O)CC5)CC4)c(OC)c3)cn(C)c(=O)c2C1 (centres unmarked) [Compound D82]
< 10 | CNC(=O)N1CCc2c(-c3cc(OC)c(CN4CCC(CCN5CCN(c6cc7c(cc6F)CN(C6CCC(=O)NC6=O)C7=O)CC5)CC4)c(OC)c3)cn(C)c(=O)c2C1 (centres unmarked) [Compound D83]
< 10 | CNC(=O)N1CCc2c(-c3cc(OC)c(CN4CCC(CCN5CCN(c6cc7c(cc6F)C(=O)N(C6CCC(=O)NC6=O)C7)CC5)CC4)c(OC)c3)cn(C)c(=O)c2C1 (centres unmarked) [Compound D84]

IC50 [nM] | SMILES
< 10 | COc1cc(-c2cn(C)c(=O)c3c2CCN(C(=O)NC2CC2)C3)cc(OC)c1CN1CCC(CCN2CCN(c3ccc4c(c3)CN(C3CCC(=O)NC3=O)C4=O)CC2)CC1 (centres unmarked) [Compound D85]
< 10 | CNC(=O)N1CCc2c(-c3cc(OC)c(CN4CCC(CCN5CCN(c6cc(F)c7c(c6)C(=O)N(C6CCC(=O)NC6=O)C7=O)CC5)CC4)c(OC)c3)cn(C)c(=O)c2C1 (centres unmarked) [Compound D86]
< 10 | CNC(=O)N1CCc2c(-c3cc(OC)c(CN4CCC(CCN5CCN(c6ccc7c(c6F)C(=O)N(C6CCC(=O)NC6=O)C7=O)CC5)CC4)c(OC)c3)cn(C)c(=O)c2C1 (centres unmarked) [Compound D87]
< 10 | CNC(=O)N1CCc2c(-c3cc(OC)c(CN4CCC(CCN5CCN(c6cc7c(cc6F)C(=O)N(C6CCC(=O)NC6=O)C7=O)CC5)CC4)c(OC)c3)cn(C)c(=O)c2C1 (centres unmarked) [Compound D88]
< 10 | COc1cc(-c2cn(C)c(=O)c3c2CCN(C(=O)NCCCCCCCCNc2cccc4c2CN(C2CCC(=O)NC2=O)C4=O)C3)cc(OC)c1CN1CCC1 (centres unmarked) [Compound D89]
10 to 100 | COc1cc(-c2cn(C)c(=O)c3c2CCN(C(=O)NCCCCCOc2cccc4c2C(=O)N(C2CCC(=O)NC2=O)C4=O)C3)cc(OC)c1CN1CCC1 (centres unmarked) [Compound D90]
< 10 | CNC(=O)N1CCc2c(-c3cc(F)c(CN4CCC(CCN5CCN(c6ccc7c(c6)C(=O)N(C6CCC(=O)NC6=O)C7=O)CC5)CC4)c(OC)c3)cn(C)c(=O)c2C1 (centres unmarked) [Compound D91]
10 to 100 | CNC(=O)N1CCc2c(-c3cnc(CN4CCC(CCN5CCN(c6ccc7c(c6)C(=O)N(C6CCC(=O)NC6=O)C7=O)CC5)CC4)c(OC)c3)cn(C)c(=O)c2C1 (centres unmarked) [Compound D92]
< 10 | CNC(=O)N1CCc2c(-c3cc(OC)c(CN4CCN(CCC5CCN(c6ccc7c(c6)C(=O)N(C6CCC(=O)NC6=O)C7=O)CC5)C(C#N)C4)c(OC)c3)cn(C)c(=O)c2C1 (centres unmarked) [Compound D93]
< 10 | CNC(=O)N1CCc2c(-c3cc(OC)c(CN4CCN(CCC5CCN(c6ccc7c(c6)C(=O)N(C6CCC(=O)NC6=O)C7=O)CC5)C5(CCC5)C4)c(OC)c3)cn(C)c(=O)c2C1 (centres unmarked) [Compound D95]
< 10 | CNC(=O)N1CCc2c(-c3cc(OC)c(CN4CCN(CCC5CCN(c6ccc7c(c6)C(=O)N(C6CCC(=O)NC6=O)C7=O)CC5)C5CC54)c(OC)c3)cn(C)c(=O)c2C1 (centres unmarked) [Compound D96]
< 10 | CNC(=O)N1CCc2c(-c3cc(OC)c(CN4CCN(CCC5CCN(c6ccc7c(c6)C(=O)N(C6CCC(=O)NC6=O)C7=O)CC5)CC45COC5)c(OC)c3)cn(C)c(=O)c2C1 (centres unmarked) [Compound D98]
< 10 | CNC(=O)N1CCc2c(-c3cc(OC)c(CN4CCN(CCC5CCN(c6ccc7c(c6)C(=O)N(C6CCC(=O)NC6=O)C7=O)CC5)CC4C)c(OC)c3)cn(C)c(=O)c2C1 (centres unmarked) [Compound D99]
< 10 | CNC(=O)N1CCc2c(-c3cc(OC)c(CN4CCN(CCC5CCN(c6ccc7c(c6)C(=O)N(C6CCC(=O)NC6=O)C7=O)CC5)C(C)C4)c(OC)c3)cn(C)c(=O)c2C1 (centres unmarked) [Compound D100]
< 10 | CNC(=O)N1CCc2c(-c3cc(OC)c(CN4CCN(CCC5CCN(c6ccc7c(c6)C(=O)N(C6CCC(=O)NC6=O)C7=O)CC5)CC4(C)C)c(OC)c3)cn(C)c(=O)c2C1 (centres unmarked) [Compound D102]
< 10 | CNC(=O)N1CCc2c(-c3cc(OC)c(CN4CCN(CCC5CCN(c6ccc7c(c6)C(=O)N(C6CCC(=O)NC6=O)C7=O)CC5)C(COC)C4)c(OC)c3)cn(C)c(=O)c2C1 (centres unmarked) [Compound D103]
< 10 | CNC(=O)N1CCc2c(-c3cc(OC)c(CN4CCN(CCC5CCN(c6ccc7c(c6)C(=O)N(C6CCC(=O)NC6=O)C7=O)CC5)CC4C(F)F)c(OC)c3)cn(C)c(=O)c2C1 (centres unmarked) [Compound D104]
